Experiments:
[1] = test system: Caco-2 cells; experiment: Live-cell sensing of metal uptake into Caco-2 enterocytes; format: cell-based, human; details: for intracellular probe fluorescence upon extracellular FeSO4: 50 μM FeSO4, Caco-2 cells; for intracellular probe fluorescence upon Cu-exposure / intracellular probe response to incoming Cd^2+, Cu^2+, Hg^2+, Mn^2+, Pb^2+ and Zn^2+: 50 μM, Caco-2 cells
Procedure: FIG. 11: Live-cell sensing of metal uptake into Caco-2 enterocytes with p-H8THPPA and m-H8TPPA. • Caco-2 cells were loaded with p-H8THPPA or m-H8TPPA and the fluorescence recorded in 3 min intervals (⋅⋅Exc/Em.416 nm/650 nm). Fifteen minutes after the start of the experiment (arrow), metal cation solutions (final concentration 50 μM) or buffer (control) were added and the fluorescence measurement continued. Data are means±S.E.M. of n=3 independent experiments.
FIG. 12 Summary of cellular p-H8TPPA and m-H8TPPA metal responsiveness. • Data were taken from the last fluorescence readout shown in FIG. 11. Data are means+S.E.M. of n=3 independent experiments. Significant differences from buffer incubation ***p<0.001; **p<0.01; *p<0.05; one-way ANOVA/Dunnett's multiple comparison test.
(§1) The human intestinal cell line Caco-2 (European Collection of Cell Cultures, Porton Down, UK) were routinely cultured at 37° C., 5% CO2 and humidified atmosphere in Dulbecco's Modified Eagles Medium (DMEM), containing 10% fetal calf serum (FCS) 100 U/mL penicillin and 100 μg/ml streptomycin. For cellular phosphonate porphyrins experiments, Caco-2 cells were transferred into 96 wells (initially seeding 5000 cells per well) and cultured for 14 days for differentiation into an enterocyte-like monolayer^53,54. For phosphonate labeling, differentiated cells were treated with either m-H8TPPA, p-H8TPPA or p-H8TPPA-iPr8 in a HEPES-based incubation buffer (10 mM HEPES, pH 7.35, 120 mM NaCl, 5.4 mM KCl, 5 mM glucose, 1.3 mM CaCl2, 1 mM MgCl2, 1 mM NaH2PO4, 0.3% bovine serum albumin) for […] Excess fluorescent dye was removed by multiple washing steps before fluorescence emission scanning using 416 nm excitation (Tecan Infinite M200 reader; Tecan, Grödig/Salzburg, […]). To analyze metal responsiveness of the intracellular phosphonate porphyrins, cells were post-treated with 50 μM of different metal solutions at 37° C. in an albumin-free incubation buffer in a time-course experiment.

[2] = Metal-dependent changes of absorbance and fluorescence properties, cell-free; details: for fluorescence change by iron treatment in vitro: cell-free, FIG. 1
Procedure: (§2) FIG. 1: Metal-dependent changes of p-H8TPPA absorbance and fluorescence properties. • 10 μM p-H8TPPA dilutions were treated with various metal solutions (final concentration 40 μM) before recording (A) absorbance, (B) fluorescence excitation (⋅Em.650 nm) and (C) fluorescence emission (⋅⋅Exc.415 nm) spectra. Data are representative for three independent experiments.
as §2, with “3:” for “1:”, “m-H8TPPA” for “p-H8TPPA”
Aiming to use arylphosphonate-tethered porphyrins as real-time cellular metal fluorescence sensors, we first characterized their metal-responsiveness under cell-free conditions. p-H8TPPA (see FIG. 1) and m-H8TPPA (see FIG. 3), were pretreated with various bivalent metal ions at a pH close to the cellular milieu (pH 7.4) before recording absorption and fluorescence spectra. […] Following Co^2+ treatment absorption spectra were less intense, plateau-shaped with a bathochromic broadening up to 434 nm. Hg^2+-treatment red-shifted the Soret band by approximately 30 nm. […] Despite of their restricted fluorescence intensity, the fluorescence emission patterns of all the aforementioned metal-treated arylphosphonate-tethered porphyrins seemed to be […] almost indistinguishable from the buffer-controls (see FIG. 1C, FIGS. 2 and 4). Zn^2+ treatment led to a declined and much more broadened Soret band in the range of 380-430 nm (see FIG. 1A). […] Thus, we assume a fluorescence quenching effect of Zn^2+ that requires further investigation.
(§3) Absorption spectra were recorded with a Tecan Infinite M200 Reader (Tecan Austria GmbH, Grödig/Salzburg, Switzerland) from 350 to 500 nm. The same device was used in fluorescence mode to measure fluorescence excitation ([…]; ⋅⋅Em. 650 nm) and fluorescence emission (550-850 nm; ⋅⋅Exc. 415 nm) spectra. 3D scanning was performed on a Spark® multimode microplate reader (Tecan Austria GmbH, Grodig/Salzburg, Switzerland) from 350 to 450 nm (Exc.) and 555 to 850 nm (Em.) with a 5 nm step size, excitation and emission bandwidths of 5 nm, and a detector gain of 100. A typical reaction mix was made by combining equal volumes of 20 μM phosphonate porphyrins diluted in assay-buffer (50 mM HEPES in bidistilled water adjusted to […] with sodium hydroxide solution; depleted of multivalent cations with Chelex® 100 Resin pretreatment^51) and a double-concentrated metal cation solution. Following 30 min incubations at 37° C. absorption or fluorescence measurements were done. For redox conversion tests the CuSO4 solutions were pretreated with 500 μM of L-ascorbic acid before admixing into the phosphonate porphyrin dilutions. To evaluate the effect of metal chelators, the metal cation-treated incubation mixtures were posttreated with 50 equivalents of EDTA or EGTA for 15 min before fluorescence emission readout.

[3] = Fluorescence titration with metal cations; details: for half maximal effective concentration for fluorescence silencing, copper versus other metal cations: 10 μM probe, Exc/Em 416 nm/650 nm; for fluorescence upon treatment with Cu^2+: 40 μM Cu^2+ (CuSO4), probe 10 μM
Procedure: FIG. 6: Fluorescence titration of p-H8THPPA and m-H8TPPA with metal cations. • 10 μM p-H8TPPA or m-H8TPPA solutions were treated with increasing quantities of metal cations followed by detection of fluorescence emission (⋅Exc/Em.416 nm/650 nm). Data are means±S.E.M. of at least n=3 independent experiments. Sigmoidal dose—response curves were fitted by non-linear regression and the resulting EC50 values are indicated.
FIG. 7: Fluorescence titration of p-H8THPPA and m-H8TPPA upon addition of metal cations • 10 μM p-H8TPPA or […] were treated with increasing quantities of metal cations followed by detection of fluorescence emission (⋅Exe/Em.416 nm/650 nm). Data are means+S.E.M. of at least n=3 independent experiments. Sigmoidal dose—response curves were fitted by non-linear regression and the resulting EC50 values are indicated.
as §3

[4] = Reversibility of metal complexation upon addition of EDTA or EGTA; details: 50 equivalents
Procedure: FIG. 9: Reversibility of p-H8THPPA and m-H8TPPA metal complexation. • Fluorescence of metal cation pretreated p-H8THPPA or m-H8TPPA solutions upon addition of 50 equivalents of EDTA or EGTA (⋅⋅Exc/Em.416 nm/650 nm). Data are means±S.E.M. of n=3 independent experiments. Statistically significant differences from buffer incubation (***p<0.001; two-way ANOVA/ Tukey post hoc test) or from metal cation treatment (##p<0.01; ###p<0.001; two-way ANOVA/Tukey post hoc test) are indicated.
as §3

[5] = Effect of Cu-redox conversion on fluorescence; details: 10 μM CuSO4 +/- 500 μM L-ascorbic acid
Procedure: FIG. 10: Effect of Cu-redox conversion on p-H8THPPA and m-H8TPPA fluorescence properties • 10 μM CuSO4 solutions pretreated +/−500 μM of l-ascorbic acid (15 min) were mixed with p-H8-TPPA or m-H8TPPA followed by detection of fluorescence emission (⋅⋅Exc/Em.416 nm/650 nm). Data are means+S.E.M. of n=3 independent experiments. Statistically significant differences from control ***p<0.001; two-way ANOVA/Tukey post hoc test) or from Cu^2+ alone (#p<0.05; two-way ANOVA/Tukey post hoc test) are indicated.
Absorption spectra were recorded with a Tecan Infinite M200 Reader (Tecan Austria GmbH, Grödig/Salzburg, Switzerland) from 350 to 500 nm. The same device was used in fluorescence mode to measure fluorescence excitation ([…]; ⋅⋅Em. 650 nm) and fluorescence emission (550-850 nm; ⋅⋅Exc. 415 nm) spectra. 3D scanning was performed on a Spark® multimode microplate reader (Tecan Austria GmbH, Grodig/Salzburg, Switzerland) from 350 to 450 nm (Exc.) and 555 to 850 nm (Em.) with a 5 nm step size, excitation and emission bandwidths of 5 nm, and a detector gain of 100. […] Following 30 min incubations at 37° C. absorption or fluorescence measurements were done. […] To evaluate the effect of metal chelators, the metal cation-treated incubation mixtures were posttreated with 50 equivalents of EDTA or EGTA for 15 min before fluorescence emission readout.

[6] = test system: Caco-2 cells; experiment: Fluorescence labeling of Caco-2 enterocytes (emission spectra, confocal imaging); format: cell-based, human; details: for passage of the cellular membrane / cellular uptake: Caco-2 cells, fluorescence spectra and confocal imaging
Procedure: FIG. 2: Caco-2 fluorescence labeling with Phenylphosphonate-substituted porphyrines. • Caco-2 cells were incubated with increasing concentrations of p-H8TPPA or m-H8TPPA followed by fluorescence measurement (⋅Exc/Em.416 nm/650 nm). Data are means±S.E.M. of n=3 independent experiments.
FIG. 5: Fluorescence labeling of Caco-2 enterocytes by phenylphosphonate-substituted porphyrines. • Fluorescence emission spectra of Caco-2 cells exposed to p-H8TPPA, m-H8TPPA (A) or the isopropyl-modified phosphonate p-H8TPPA-iPr8 (C) in comparison with each of the phenylphosphonate porphyrins as 10 μM dilution in assay buffer (⋅Exc416 nm). (B) Confocal images of Caco-2 upon loading with p-H8TPPA or m-H8TPPA. (D) Confocal images of p-H8TPPA-iPr8 in the presence or absence of Caco-2 cells. Scale bar=10 μm. Data are representative for three independent experiments.
as §1
Fluorescence images of phosphonate porphyrin-labeled Caco-2 enterocytes were acquired on a Leica TCS SP8 laser scanning confocal microscope equipped with LAS X 3.5.5.19976 software platform, using a HC PL APO CS2 63×/1.20 water objective. The filters settings were[…]Exc488 nm/[…]Em580 nm; pinhole 111.5 μm, pinhole size 1 AU.

[7] = Metal-dependent changes of absorbance and fluorescence properties, cell-free; details: for new absorbance band peak after Cd^2+ treatment: decline of 416 nm maximum; for Soret peak of visible absorption: buffer-control treatment, pH 7.4, 10 μM probe
[8] = Solubility in aqueous media with detergent pluronic; format: physicochemical; details: pluronic F-127
[9] = 10 μM probe, 40 μM metal, pH 7.4

| Structure (SMILES) | intracellular probe fluorescence upon extracellular FeSO4 [1] | intracellular probe fluorescence upon Cu-exposure [1] | intracellular probe response to incoming Cd^2+, Cu^2+, Hg^2+, Mn^2+, Pb^2+ and Zn^2+ [1] | fluorescence change on binding of free divalent Cu, Zn, Pb, Hg, Cd, Co and Mn ions [2] | fluorescence change on binding of free divalent Fe, Mg and Ca ions [2] | fluorescence change by iron treatment in vitro [2] | half maximal effective concentration for fluorescence silencing, copper versus other metal cations [3] | fluorescence upon treatment with Cu^2+ [3] | response of Zn^2+ and Hg^2+ quenching to metal chelator posttreatment [4] | response of copper-induced fluorescence decrease to metal chelator posttreatment [4] | fluorescence response to Cu^2+ and Cu^+ [5] | passage of the cellular membrane / cellular uptake [6] | fluorescence change upon Ca^2+ or Mg^2+ treatment [7, 9] | fluorescence change upon Mn^2+ and (far more pronounced) Pb^2+ treatment [7, 9] | red-shift of the Soret band after Hg^2+ treatment [7, 9] | new absorbance band peak after Cd^2+ treatment [7, 9] | Soret peak of visible absorption [7] | other results |
| --- | --- | --- | --- | --- | --- | --- | --- | --- | --- | --- | --- | --- | --- | --- | --- | --- | --- | --- |
| O=P(O)(O)c1cccc(-c2c3nc(c(-c4cccc(P(=O)(O)O)c4)c4ccc([nH]4)c(-c4cccc(P(=O)(O)O)c4)c4nc(c(-c5cccc(P(=O)(O)O)c5)c5ccc2[nH]5)C=C4)C=C3)c1 [m-H8TPPA, 5,10,15,20-tetrakis [m-phenylphosphonic acid] porphyrin] | remained stable | strong and rapid decline | fluorescence silencing | fluorescent decrease | fluorescent increase | slightly enhanced | considerably lower for copper | almost complete abrogation | quenching was reversed | almost non-responsive | Quenching | pass the cellular membrane | higher fluorescence | dropped markedly | approximately 30 nm | 434 nm | around 416 nm | – |
| O=P(O)(O)c1ccc(-c2c3nc(c(-c4ccc(P(=O)(O)O)cc4)c4ccc([nH]4)c(-c4ccc(P(=O)(O)O)cc4)c4nc(c(-c5ccc(P(=O)(O)O)cc5)c5ccc2[nH]5)C=C4)C=C3)cc1 [p-H8TPPA, 5,10,15,20-Tetrakis [p-phenylphosphonic acid] porphyrin] | remained stable | strong and rapid decline | fluorescence silencing | fluorescent decrease | fluorescent increase | slightly enhanced | considerably lower for copper | almost complete abrogation | quenching was reversed | almost non-responsive | Quenching | pass the cellular membrane | higher fluorescence | dropped markedly | approximately 30 nm | 434 nm | around 416 nm | fluorescence emission after Zn^2+ treatment relative to excitation properties ([7]; 10 μM probe, 40 μM metal, pH 7.4, FIG. 1): much lower than what would have been expected |
| CC(C)OP(=O)(OC(C)C)c1ccc(-c2c3nc(c(-c4ccc(P(=O)(OC(C)C)OC(C)C)cc4)c4ccc([nH]4)c(-c4ccc(P(=O)(OC(C)C)OC(C)C)cc4)c4nc(c(-c5ccc(P(=O)(OC(C)C)OC(C)C)cc5)c5ccc2[nH]5)C=C4)C=C3)cc1 [p-H8TPPA-iPr8, 5,10,15,20-tetrakis[p-(diisopropoxyphosphoryl)phenyl] porphyrin] | – | – | – | – | – | – | – | – | – | – | – | inaccessible for cellular uptake | – | – | – | – | – | fluorescence change upon metal binding ([2]; isopropyl diester, phosphonate blocked for metal binding): no fluorescence change; microcrystal size in confocal microscopy pictures ([6]; incubation buffer, with or without Caco-2 cells): ~20 μm; effect of detergent pluronic on solubility in aqueous media [8]: did not improve the solubility |

Reference: patent publication US20240142458A1, “FLUORESCENT PROBES FOR QUANTIFICATION OF FREE COPPER” (TECHNISCHE UNIVERSITÄT BERLIN, priority 2020, published 2024)
